Data from patent publication US4409233A, “Highly concentrated preparations of dopa compounds” (Sankyo Company, Limited, priority 1978, dated 1983).
Converted amounts (≈) assume the structure as drawn.

Key:
[1] = cited from earlier work
[2] = Solubility of dopa compounds in water; type: physicochemical; conditions: 50 mg of dopa

volume of water necessary to dissolve the minimal dose of dopa [2] [mL] | Structure (SMILES) | solubility in water (in words) [1] | solubility in water [1] [µg/mL]
 | C[C@](N)(Cc1ccc(O)c(O)c1)C(=O)O [methyldopa, L-3-(3,4-dihydroxyphenyl)-2-methylalanine] | poor solubility in water | 
20 | NC(Cc1ccc(O)c(O)c1)C(=O)O (stereo not drawn) [dopa, β-(3,4-dihydroxyphenyl)-α-alanine] | poor solubility in water | 2500 (≈ 12.7 mM)
